# Experiments:
# [1] = tested on: primary CLL cells; assay: BCMA level by flow cytometry on primary CLL cells after γ-secretase inhibition; assay type: cell-based, human; details: 100 nM
# Description: (§1) Primary CLL samples were stained for BCMA expression by flow cytometry and compared to isotype controls. […] As provided in FIG. 2A, CLL cells were cultured and basal levels of BCMA were assessed by flow cytometry and compared to isotype controls. (n=25). For FIG. 2B, CLL cells were treated for 24 or 48h with 0nM or 100 nM γ-secretase inhibitor and BCMA was assessed by flow cytometry. Values are represented as fold increase compared to medium control. (n=12-28). FIG. 2C provides basal levels of BCMA compared to isotype control among CLL patients with mutated or unmutated IgVH. (n=4-10). […] (n=4-12) The P value was calculated by Wilcoxon test (FIGS. 2A-2B), Mann Whitney test (FIGS. 2B, 2C, 2D) or paired t test (FIGS. 2E, F). […]
# Flow cytometry. […] After antibody staining, samples were washed using PBA and acquired on BD FACS Canto or LSR Fortessa flow cytometer and analysed with FlowJo v10. To quantify number of cells using flow cytometry, 123count eBeads™ Counting Beads (Thermo Fisher Scientific) according to manufacturer's instructions. BCMA molecules per cell were determined by usage of PE Phycoerythrin Fluorescence Quantitation Kit (BD Biosciences).
# BCMA characterization by flow cytometry and quantitative polymerase chain reaction. […] After 24 or 48 h BCMA was detected by flow cytometry as described above. Relative expression was calculated compared to isotype controls. […]
# [2] = tested on: primary CLL cells; assay: Soluble BCMA ELISA in supernatants of CLL cells; assay type: cell-based, human; details: 100 nM, 24-48 h
# Description: as §1, with “(n=4-10). FIG. 2D illustrates the fold increase of BCMA after 24-48 h treatment with 100nM γ-secretase inhibitor compared to medium control among CLL patients with mutated or unmutated IgVH. (n=5-13). FIG. 2E provides the results of an assessment of BCMA mRNA relative to GAPDH control by qPCR after primary CLL samples were treated without or with 100 nM γ-secretase inhibitor for 24 h. (n=9).” for “(n=4-10).”
# sBCMA ELISA. […] After 24 or 48 h supernatants were harvested and stored at −20° C. soluble BCMA (sBCMA) in supernatants were measured by ELISA using antibody pairs for BCMA.
smiles,measurement,setting,value
C[C@H](NC(=O)[C@@H](O)c1cc(F)cc(F)c1)C(=O)N[C@@H]1C(=O)N(C)c2ccccc2-c2ccccc21 [Ly411575],BCMA level on CLL cells,[1]; 24 h,small but significant upregulation of BCMA
same,BCMA level on CLL cells,"[1]; 48 h, compared to 24 h",further enhanced
same,sBCMA levels in supernatants of CLL cells,[2],marked decreases

# — patent publication US20220411525A1, “BCMA AS A TARGET FOR T CELL REDIRECTING ANTIBODIES IN B CELL LYMPHOMAS” (Janssen Pharmaceutica NV, priority 2021, published 2022)
